Source: ChEMBL document CHEMBL1201862, “PubChem BioAssay data set” (2004)
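Five compound concentrations were applied to cells in 96-well plates for 48 hours; endpoints were derived by simple linear interpolation of the resulting dose-response curve. GI50 = concentration required for 50% inhibition of growth.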 The source made the active and inactive calls. Cut-off read from the data, not from the text of the source: active = GI50 up to about 1.1 µM and inactive = higher.

Legend:
Experiment in all cases: inhibition of tumour cell growth, NCI panel, 48 h
[1] = test system: 786-0
[2] = test system: A498
[3] = test system: A549
[4] = test system: ACHN
[5] = test system: BT-549
[6] = test system: CAKI-1
[7] = test system: CCRF-CEM
[8] = test system: COLO 205
[9] = test system: DU-145
[10] = test system: EKVX
[11] = test system: HCC 2998
[12] = test system: HCT-116
[13] = test system: HCT-15
[14] = test system: HL-60
[15] = test system: HOP-62
[16] = test system: HOP-92
[17] = test system: HT-29
[18] = test system: Hs-578T
[19] = test system: K562
[20] = test system: KM12
[21] = test system: LOX IMVI
[22] = test system: M14
[23] = test system: MCF7
[24] = test system: MDA-MB-231
[25] = test system: MDA-MB-435
[26] = test system: MDA-N
[27] = test system: MOLT-4
[28] = test system: Malme-3M
[29] = test system: NCI-H226
[30] = test system: NCI-H23
[31] = test system: NCI-H460
[32] = test system: NCI/ADR-RES
[33] = test system: OVCAR-3
[34] = test system: OVCAR-4
[35] = test system: OVCAR-5
[36] = test system: OVCAR-8
[37] = test system: PC-3
[38] = test system: RPMI-8226
[39] = test system: SF-295
[40] = test system: SF-539
[41] = test system: SK-MEL-28
[42] = test system: SK-MEL-5
[43] = test system: SK-OV-3
[44] = test system: SN12C
[45] = test system: SNB-19
[46] = test system: SR
[47] = test system: SW-620
[48] = test system: T47D
[49] = test system: TK-10
[50] = test system: U-251
[51] = test system: UACC-257
[52] = test system: UACC-62
[53] = test system: UO-31

## COC(=O)C#Cc1cccc(OC)c1OC
[1]
  GI50: 43.8 µM (inactive)
[2]
  GI50: 45 µM (inactive)
[3]
  GI50: 37.5 µM (inactive)
[4]
  GI50: 60 µM (inactive)
[5]
  GI50: 62.2 µM (inactive)
[6]
  GI50: 28.6 µM (inactive)
[7]
  GI50: 26.6 µM (inactive)
[8]
  GI50: 27 µM (inactive)
[9]
  GI50: 88.1 µM (inactive)
[10]
  GI50: 19.5 µM (inactive)
[11]
  GI50: 24.4 µM (inactive)
[12]
  GI50: 33.6 µM (inactive)
[13]
  GI50: 32.4 µM
[14]
  GI50: 33 µM (inactive)
[15]
  GI50: 98.2 µM (inactive)
[16]
  GI50: 25.8 µM (inactive)
[17]
  GI50: 27 µM (inactive)
[18]
  GI50: 37.3 µM (inactive)
[19]
  GI50: 21.1 µM (inactive)
[20]
  GI50: 45.4 µM (inactive)
[21]
  GI50: 33.7 µM (inactive)
[22]
  GI50: 49.7 µM (inactive)
[23]
  GI50: 19.7 µM (inactive)
[24]
  GI50: 62.8 µM (inactive)
[25]
  GI50: 33.7 µM (inactive)
[26]
  GI50: 40.7 µM (inactive)
[27]
  GI50: 14 µM (inactive)
[28]
  GI50: 28 µM (inactive)
[29]
  GI50: 43.3 µM (inactive)
[30]
  GI50: 41.3 µM (inactive)
[31]
  GI50: 48.1 µM (inactive)
[32]
  GI50: 30.3 µM (inactive)
[33]
  GI50: 41.1 µM (inactive)
[34]
  GI50: 20.4 µM (inactive)
[35]
  GI50: 22.5 µM (inactive)
[36]
  GI50: 40.3 µM (inactive)
[37]
  GI50: 36.7 µM (inactive)
[38]
  GI50: 30.1 µM (inactive)
[39]
  GI50: 40.5 µM (inactive)
[40]
  GI50: 21.6 µM (inactive)
[41]
  GI50: 38.9 µM (inactive)
[42]
  GI50: 29.6 µM (inactive)
[43]
  GI50: 48 µM (inactive)
[44]
  GI50: 48.1 µM (inactive)
[45]
  GI50: 60.3 µM (inactive)
[46]
  GI50: 18.7 µM (inactive)
[47]
  GI50: 47 µM (inactive)
[48]
  GI50: > 100 µM (inactive)
[49]
  GI50: 41.8 µM (inactive)
[50]
  GI50: 31.8 µM (inactive)
[51]
  GI50: > 100 µM (inactive)
[52]
  GI50: 48.3 µM (inactive)
[53]
  GI50: 20.4 µM (inactive)
